The values that follow come from US10646494B2, “Heterocycle-substituted tetracyclic compounds and methods of use thereof for the treatment of viral diseases” (Merck Sharp & Dohme Corp., priority 2016, dated 2020).

Parameters in all cases: species or system Hepatitis C virus (HCV)
In one assay the test system is HCV replicon 2B. The assay is described as follows: Cell-based HCV replicon assay (Replicon Assay A), replicon 2B. To be noted: read-out: Replicon EC50 (nM) 2B, replicon 2B, replicon RNA by real time PCR, cells harvested on day 3. The method, then: (§1) To measure cell-based anti-HCV activity of compounds of the present invention, two complimentary assays were employed using various replicons. In the first assay (“Replicon Assay A”), replicon cells were seeded at 2000 cells/well in 384-well 384-well flat bottom tissue culture treated clear bottom plate (Corning 3707) in the presence of the test compound. Various concentrations of test compound, typically in 10 serial dilutions, were added to the assay mixture, with the starting concentration ranging from 333.3 nM to […]. The final concentration of DMSO was 0.5%. Fetal bovine serum was 5%, in the assay media. Cells were harvested on day 3 by removing media and washing the cells with a suitable wash buffer. The cells are lysed with the addition of 1× Qiagen lysis buffer (Cat #1062731). The replicon RNA level was measured using real time PCR (TaqMan® EZ RT-PCR, Applied Biosystems 403028) with the following primers and probes: […]
(§2) Cyclophilin RNA was used as endogenous control and was amplified in the same reaction as NS5B (multiplex PCR). The real-time RT-PCR reactions were run on ABI PRISM 7900HT Sequence Detection System using the following program: 50° C. for 2 minutes, 60° C. for 30 minutes, 95° C. for 5 minutes, 40 cycles of 94° C. for 20 sec, 55° C. for 1 minutes.
(§3) The amount of HCV replicon RNA per cell is quantified using a linear regression curve for a known nanogram (ng) amount of HCV replicon total RNA. This is established by plotting the Cycle Threshold values (Ct) from the Neo probe and primer set versus the log (ng) for each HCV replicon total RNA standard. The amount of HCV RNA for each replicon sample is calculated by taking the sample's Ct value, minus the line intercept, divided by the slope of the line. Similarly, the amount of Cyclophilin mRNA per cell is also quantified using a linear regression curve for a known nanogram (ng) amount of HCV replicon total RNA. Again, this is established by plotting the Cycle Threshold values (Ct) from the Cyclophilin probe and primer set versus the log (ng) for each HCV replicon total RNA standard.
(§4) Data was obtained for various compounds of the present invention using the methods described in the Example above, and is presented in the table immediately below. Data for replicons 1A, 1AY93H and 2B were obtained using Replicon Assay A and data for replicons 1B were obtained using Replicon Assay B.
On the technique in general: Replicon systems follow genome replication, usually without infectious particles.

In the next assay the test system is HCV replicon 1A Y93H. The experiment in a line: Cell-based HCV replicon assay (Replicon Assay A), replicon 1AY93H. Particulars: read-out: Replicon EC50 (nM) 1A Y93H, replicon 1A Y93H, replicon RNA by real time PCR, cells harvested on day 3. Here is the method:
as §1, §2, §3, §4

For a further assay, the system named is HCV replicon 1A. The assay is described as follows: Cell-based HCV replicon assay (Replicon Assay A), replicon 1A. To be noted: replicon RNA by real time PCR, cells harvested on day 3. The method, then:
as §1, §2, §3, §4

Read-outs that look alike come from different tables or passages of the source.

One may read the EC50 as the concentration that produces a half-maximal response. As for `CCc1cc(C2Oc3cc(-c4cnc([C@@H]5CCCN5C(=O)[C@@H](NC(=O)OC)C(C)C)[nH]4)cc(F)c3-c3cc4cc(-c5cnc([C@@H]6CCCN6C(=O)[C@@H](NC(=O)OC)C(C)C)[nH]5)ccc4n32)on1` (mixture of isomers) [Compound 5], the EC50 was 4.17 nM with HCV replicon 2B (Hepatitis C virus, 72 h) and 0.708 nM in the assay on HCV replicon 1A Y93H (Hepatitis C virus, 72 h).

Consider `COC(=O)N[C@H](C(=O)N1CCC[C@H]1c1ncc(-c2cc(F)c3c(c2)OC(c2nc4ccccc4n2C)n2c-3cc3cc(-c4cnc([C@@H]5CCCN5C(=O)[C@@H](NC(=O)OC)C(C)C)[nH]4)ccc32)[nH]1)C(C)C` (mixture of isomers) [Compound 11], for which the EC50 in the assay on HCV replicon 2B (Hepatitis C virus, 72 h) amounted to 8.23 nM; with HCV replicon 1A Y93H (Hepatitis C virus, 72 h), 21.6 nM; with HCV replicon 1A (Hepatitis C virus, 72 h) it was 0.0081 nM.

`COC(=O)N[C@H](C(=O)N1CCC[C@H]1c1ncc(-c2cc(F)c3c(c2)OC(c2cc4ccccn4n2)n2c-3cc3cc(-c4cnc([C@@H]5CCCN5C(=O)[C@@H](NC(=O)OC)C(C)C)[nH]4)ccc32)[nH]1)C(C)C` (mixture of isomers) [Compound 12]: the 50% effective concentration (EC50) with HCV replicon 2B (Hepatitis C virus, 72 h) turned out to be 33.3 nM; with HCV replicon 1A (Hepatitis C virus, 72 h), 0.0202 nM.

Consider `COC(=O)N[C@H](C(=O)N1CCC[C@H]1c1ncc(-c2ccc3c(c2)OC(c2nnc(-c4ccccc4)o2)n2c-3cc3cc(-c4cnc([C@@H]5CCCN5C(=O)[C@@H](NC(=O)OC)C5CCOCC5)[nH]4)ccc32)[nH]1)C1CCOCC1` (mixture of isomers) [Compound 38], for which the EC50 in the assay with HCV replicon 1A Y93H (Hepatitis C virus, 72 h) was 0.737 nM; in the assay on HCV replicon 1A (Hepatitis C virus, 72 h) it was 0.223 nM.

As to `CCc1cc([C@@H]2Oc3cc(-c4cnc([C@@H]5CCCN5C(=O)[C@@H](NC(=O)OC)C(C)C)[nH]4)cc(F)c3-c3cc4cc(-c5cnc([C@@H]6CCCN6C(=O)[C@@H](NC(=O)OC)C(C)C)[nH]5)ccc4n32)on1` (single isomer, unassigned) [Compound 7], the EC50 stood at 10.5 nM with HCV replicon 2B, 49.7 nM with HCV replicon 1A Y93H and 0.0073 nM in the assay on HCV replicon 1A.

On to `CCc1cc([C@@H]2Oc3cc(-c4cnc([C@@H]5CCCN5C(=O)[C@@H](NC(=O)OC)C(C)C)[nH]4)cc(F)c3-c3cc4cc(-c5cnc([C@@H]6CCCN6C(=O)[C@@H](NC(=O)OC)C(C)C)[nH]5)ccc4n32)on1` (single isomer, unassigned) [Compound 8], for which the EC50 was 1.23 nM with HCV replicon 2B; 0.603 nM in the assay on HCV replicon 1A Y93H; 0.004 nM in the assay with HCV replicon 1A (Hepatitis C virus, 72 h).

For the compound `COC(=O)N[C@H](C(=O)N1CCC[C@H]1c1ncc(-c2cc(F)c3c(c2)O[C@@H](c2cc(C(C)C)no2)n2c-3cc3cc(-c4cnc([C@@H]5CCCN5C(=O)[C@@H](NC(=O)OC)C(C)C)[nH]4)ccc32)[nH]1)C(C)C` (single isomer, unassigned) [Compound 9], the EC50 with HCV replicon 2B came to 0.27 nM; with HCV replicon 1A Y93H, 0.05 nM; in the assay on HCV replicon 1A (Hepatitis C virus, 72 h), 0.0036 nM.

Consider `COC(=O)N[C@H](C(=O)N1CCC[C@H]1c1ncc(-c2cc(F)c3c(c2)O[C@@H](c2cc(C(C)C)no2)n2c-3cc3cc(-c4cnc([C@@H]5CCCN5C(=O)[C@@H](NC(=O)OC)C(C)C)[nH]4)ccc32)[nH]1)C(C)C` (single isomer, unassigned) [Compound 10], for which the EC50 with HCV replicon 2B stood at 1.05 nM; with HCV replicon 1A Y93H, 1.43 nM; in the assay on HCV replicon 1A, 0.0027 nM.

Regarding `COC(=O)N[C@H](C(=O)N1CCC[C@@H]1c1ncc(-c2ccc3c(c2)cc2n3C(c3nnc(C)s3)Oc3cc(-c4cnc([C@H]5CCCN5C(=O)[C@H](NC(=O)OC)C(C)C)[nH]4)cc(F)c3-2)[nH]1)C(C)C` (single isomer, unassigned) [Compound 15], the EC50 in the assay with HCV replicon 2B (Hepatitis C virus, 72 h) turned out to be 3.06 nM.

In the case of `COC(=O)N[C@H](C(=O)N1CCC[C@@H]1c1ncc(-c2ccc3c(c2)cc2n3C(c3nnc(C)s3)Oc3cc(-c4cnc([C@H]5CCCN5C(=O)[C@H](NC(=O)OC)C(C)C)[nH]4)cc(F)c3-2)[nH]1)C(C)C` (single isomer, unassigned) [Compound 16], the EC50 with HCV replicon 2B came to 1.75 nM.

`COC(=O)N[C@H](C(=O)N1CCC[C@@H]1c1ncc(-c2ccc3c(c2)cc2n3C(c3cnco3)Oc3cc(-c4cnc([C@H]5CCCN5C(=O)[C@H](NC(=O)OC)C(C)C)[nH]4)cc(F)c3-2)[nH]1)C(C)C` (single isomer, unassigned) [Compound 17]: the EC50 in the assay with HCV replicon 2B (Hepatitis C virus, 72 h) worked out at 3.96 nM; in the assay on HCV replicon 1A Y93H, 0.716 nM; in the assay with HCV replicon 1A, 0.0327 nM.

Regarding `COC(=O)N[C@H](C(=O)N1CCC[C@@H]1c1ncc(-c2ccc3c(c2)cc2n3C(c3cnco3)Oc3cc(-c4cnc([C@H]5CCCN5C(=O)[C@H](NC(=O)OC)C(C)C)[nH]4)cc(F)c3-2)[nH]1)C(C)C` (single isomer, unassigned) [Compound 18], the EC50 was determined as 3.54 nM in the assay on HCV replicon 2B, 18.4 nM in the assay on HCV replicon 1A Y93H and 0.0023 nM in the assay on HCV replicon 1A.

Take `COC(=O)N[C@H](C(=O)N1CCC[C@H]1c1ncc(-c2cc(F)c3c(c2)OC(c2cnns2)n2c-3cc3cc(-c4cnc([C@@H]5CCCN5C(=O)[C@@H](NC(=O)OC)C(C)C)[nH]4)ccc32)[nH]1)C(C)C` (single isomer, unassigned) [Compound 21]: the 50% effective concentration (EC50) stood at 0.98 nM in the assay on HCV replicon 2B and 1.39 nM in the assay with HCV replicon 1A Y93H.

On to `COC(=O)N[C@H](C(=O)N1CCC[C@H]1c1ncc(-c2cc(F)c3c(c2)OC(c2cc(C(C)C)no2)n2c-3cc3cc(-c4cnc([C@@H]5CCCN5C(=O)[C@@H](NC(=O)OC)C(C)C)[nH]4)ccc32)[nH]1)C(C)C` (single isomer, unassigned) [Compound 26], for which the EC50 in the assay on HCV replicon 2B came to 0.8 nM; in the assay with HCV replicon 1A Y93H it was 0.816 nM.

`CCc1cnc(C2Oc3cc(-c4cnc([C@@H]5CCCN5C(=O)[C@@H](NC(=O)OC)C(C)C)[nH]4)cc(F)c3-c3cc4cc(-c5cnc([C@@H]6CCCN6C(=O)[C@@H](NC(=O)OC)C(C)C)[nH]5)ccc4n32)o1` (single isomer, unassigned) [Compound 27]: the EC50 in the assay on HCV replicon 2B stood at 5.5 nM; in the assay on HCV replicon 1A (Hepatitis C virus, 72 h), 0.0027 nM.

For `COC(=O)N[C@H](C(=O)N1CCC[C@H]1c1ncc(-c2cc(F)c3c(c2)OC(c2cc(C4CC4)no2)n2c-3cc3cc(-c4cnc([C@@H]5CCCN5C(=O)[C@@H](NC(=O)OC)C(C)C)[nH]4)ccc32)[nH]1)C(C)C` (single isomer, unassigned) [Compound 29], the results for the EC50 in the assay on HCV replicon 2B and with HCV replicon 1A Y93H were 0.46 nM and 3.25 nM, respectively.

Consider `CCc1nnc(C2Oc3cc(-c4cnc([C@@H]5CCCN5C(=O)[C@@H](NC(=O)OC)C(C)C)[nH]4)cc(F)c3-c3cc4cc(-c5cnc([C@@H]6CCCN6C(=O)C(NC(=O)OC)C(C)C)[nH]5)ccc4n32)s1` (single isomer, unassigned) [Compound 34], for which the EC50 with HCV replicon 1A Y93H (Hepatitis C virus, 72 h) was 0.793 nM; in the assay with HCV replicon 1A, 0.0084 nM.

For `COC(=O)N[C@H](C(=O)N1CCC[C@H]1c1ncc(-c2cc(F)c3c(c2)OC(c2cnc4n2CCC4)n2c-3cc3cc(-c4cnc([C@@H]5CCCN5C(=O)[C@@H](NC(=O)OC)C(C)C)[nH]4)ccc32)[nH]1)C(C)C` (some centres unmarked) [Compound 13], the response in the assay with HCV replicon 1A (Hepatitis C virus, 72 h) was half-maximal at 0.147 nM (EC50).

For `COC(=O)N[C@H](C(=O)N1CCC[C@H]1c1ncc(-c2ccc3c(c2)OC(c2ccc(C)o2)n2c-3cc3cc(-c4cnc([C@@H]5C[C@@H](F)CN5C(=O)[C@@H](NC(=O)OC)C5CCOCC5)[nH]4)ccc32)[nH]1)C(C)C` (some centres unmarked) [Compound 44], the EC50 with HCV replicon 1A Y93H (Hepatitis C virus, 72 h) is 0.434 nM; in the assay on HCV replicon 1A (Hepatitis C virus, 72 h) it was 0.0679 nM.

In the case of `COC(=O)N[C@H](C(=O)N1CCC[C@H]1c1ncc(-c2ccc3c(c2)OC(c2ccc(C)o2)n2c-3cc3cc(-c4cnc([C@@H]5C[C@H]6C[C@H]6N5C(=O)[C@@H](NC(=O)OC)C(C)C)[nH]4)ccc32)[nH]1)C(C)C` (some centres unmarked) [Compound 45], the EC50 with HCV replicon 1A Y93H (Hepatitis C virus, 72 h) came out at 4.22 nM; with HCV replicon 1A (Hepatitis C virus, 72 h), 0.0484 nM.
